This is an account of results in publication PMC5640902, “Monitoring multiple myeloma by idiotype-specific peptide binders of tumor-derived exosomes” (Molecular Cancer, 2017).

Positions of bridges follow the written chain, without caps; N, C: chain ends. No end group written: not given here.

The subject of test [1] is 5T33MM cells. In words: In vitro cell binding of FITC-conjugated peptides by flow cytometry. The format is cell-based, murine. The settings on record: 10 min on ice, Fig. 2b. On the procedure: (§1) Cultured 5T33MM, A20 and IM9 cells as well as primary B cells from MM patient and healthy donor were washed and suspended at the density of 10^6 cells/ml in FACs Flow Buffer [BD Biosciences]. All subsequent washing and incubations were carried out in the same buffer on ice. Cells were incubated with 20 μg/ml of FITC-conjugated peptides for 10 min on ice, then washed twice, and analyzed by flow cytometry [FACSCalibur, BD Biosciences]. For peptide co-localization with the BCR complex, 5T33MM cells (10^6 cells/ml) were stained with FITC-conjugated peptides [10 μg/ml) and goat anti-mouse IgG-Alexa fluor 568 [Thermo Fisher]. After extensive washing, cells were mounted under cover slip, and visualized by confocal microscopy [Leica TC-SP2].

Test [2] concerns 5T33MM-derived exosomes. In words: Exosome immunocapture (anti-CD63 SMNPs) and flow cytometry, 5T33MM-derived exosomes. The format is binding, murine. The settings on record: exosomes from cell supernatant trapped on anti-CD63 SMNPs; FITC-conjugated reagent; Fig. 4. The method, then: (§2) Exosomes were isolated from 250 μL of blood and 10 mL of cell supernatant respectively using ExoQuick solutions [System Biosciences – SBI, Palo Alto, California, US] and ExoQuick-TC™ [System Biosciences], according to the manufacturer’s protocol. Briefly, serum and cell supernatants were centrifuged at 3000×g for 15 min to remove cells and cell debris. The supernatant was transferred to a sterile vessel and the recommended volume of ExoQuick solution or ExoQuick-TC™ were added to the bio-fluids. After brief vortex, samples were stored 30 min at 4 °C and then centrifuged at 1500 x g for 30 min at room temperature. After removing the supernatant, the pellet was suspended in nuclease-free water.
(§3) Isolated exosomes from serum or cell supernatants were suspended in 1 ml of 1X PBS. Exosome aliquots (500 μl) were labeled with 50 μl of 10X Exo-Red [SBI] according to manufacturer’s instructions. The exosomes were re-isolated using the addition of 100 μl ExoQuick followed by precipitation for 30 min at +4 °C. The labeled exosome pellet was suspended in 500 μl 1X PBS and stained with CD63-coupled magnetic beads provided by SBI’s Exo-Flow IP kit [SBI] and with the FITC-conjugated peptides.

Test [3] relates to A20 secreted IgG. The test is described as follows: ELISA binding of biotinylated peptide to control A20 secreted IgG. The arrangement: species or system murine. The settings on record: biotinylated-p5 peptide; control Ig; Fig. 2a. On the procedure: (§4) Single strand DNA (ssDNA) was extracted from the selected phage clones by phenol/chlorophorm purification followed by ethanol precipitation. DNA fragment codifying the peptide ligand was amplified by PCR and sequenced to get the primary structure of amino acid sequence for the peptide synthesis. Synthesized peptides were purchased from Caslo Laboratory ApS [Caslo, Kongens Lyngby, DE]. The specific binding of peptides to the 5T33MM sIgG was analyzed by ELISA, as follows. Streptavidin coated 96 well plates were washed extensively and supplemented with biotin-conjugated peptides by 1 h-incubation at 37 °C; then, after washing and blocking with blocking solution (1X PBS, 0.05% Tween-20, 5% milk), aliquots of 5T33MM sIgG (1 μg/ml in blocking buffer) were added overnight at 4 °C. Wells were extensively washed and coated with the anti-mouse IgG (Fc-specific) alkaline phosphatase-conjugated [Sigma Aldrich] for 1 h at 37 °C, incubated with the alkaline phosphatase substrate [Sigma Aldrich], and analyzed by an ELISA reader at 405 nm [Labsystems multiscan MS].
(§5) The random peptide insert was flanked by a pair of cysteines resulting in cyclized peptide exposed on M13 coat protein. After three rounds of affinity selection, single phage clones were purified and tested by enzyme-linked immunosorbent assay (ELISA) for binding to the 5T33MM Igs or control Igs, as previously described. […]
Background: ELISA stands for enzyme-linked immunosorbent assay.

The test system of test [4] is polyclonal mouse Igs. In words: ELISA binding of biotinylated peptide to control polyclonal mouse Igs. The settings on record: biotinylated-p5 peptide, Fig. 2a. The method, then: as §4, §5
The test system of test [5] is IM9-derived exosomes. The test is described as follows: Exosome immunocapture (anti-CD63 SMNPs) and flow cytometry, IM9-derived exosomes. In kind it is binding, human. The note with it: exosomes trapped on anti-CD63 SMNPs; FITC-conjugated p5 peptide; Fig. 4. The method, then: as §2, §3
On the technique in general: Flow cytometry measures light scatter and fluorescence of single cells or particles in a stream.

Test [6] deals with A20-derived exosomes. In words: Exosome immunocapture (anti-CD63 SMNPs) and flow cytometry, A20-derived exosomes. In kind it is binding, murine. The note with it: exosomes trapped on anti-CD63 SMNPs; FITC-conjugated p5 peptide; Fig. 4. On the procedure:
as §2, §3

Test [7] concerns mIg-5T33MM. In words: ELISA binding of biotin-conjugated Id-peptides to 5T33MM Ig (Scatchard plot analysis). The arrangement: species or system murine. The note with it: biotinylated-p5 peptide at different concentrations; Fig. 2a. The method, then: as §4, §5
Test [8] has as its system 5T33MM cells. In words: Confocal microscopy of FITC-conjugated peptide co-localization with the BCR complex. The settings on record: FITC-conjugated p5 peptide, non-permeabilized cells, anti-mouse IgG co-staining; Fig. 2c. The format is cell-based, murine. On the procedure:
as §1

For “CGGNGPGLC [pCNT, irrelevant peptide (…) included as a negative control, FITC-conjugated, reference compound]”, in test [1], the “recognition of 5T33MM target cells by flow cytometry” value was “did not”. The “detection of 5T33MM-derived exosomes by flow cytometry” value in test [2] is “undetected”.

For the sequence “CIGNSNTLC (disulfide 1-9 (inferred)) [p5, used biotinylated or FITC-conjugated]”, the “reactivity against A20 secreted IgG by ELISA” value in test [3] was “did not react”. Also, the “reactivity against polyclonal mouse Igs by ELISA” value in test [4] is given as “did not react”. For the same sequence, the “detection of exosomes released from human IM9 multiple myeloma cells” value in test [5] is listed as “did not detect”. Also, in test [6], the “detection of exosomes released from murine A20 B-lymphoma cells” value was “did not detect”. In addition, the “recognition of 5T33MM target cells by flow cytometry” value in test [1] is reported as “recognized 5T33MM target cells in a dose-dependent manner”. In addition, the “detection of 5T33MM-derived exosomes by flow cytometry” value in test [2] is on record as “equally detected”. The “reactivity to the cognate antibody (5T33MM-Igs) by ELISA” value in test [7] is reported as “concentration-dependent specific reactivity”. In addition, the “localization on 5T33MM cells by confocal microscopy” value in test [8] was “bound to the 5T33MM cell surface and also localized inside the cells”.
